Data: US20050019357A1, “(2S,3R,4S)-4-hydroxyisoleucine-containing cosmetic compositions and methods of application” (Caster, priority 2003, published 2005)

Legend:
[1] = system: Bullous Pemphigoid Antigen 1 (BPAG-1); assay: cDNA-macroarrays confirmed by quantitative RT-PCR on messenger RNAs of epidermal cells: BPAG-1 expression; format: cell-based
TNS & CRAB-2 receptors = assay: cDNA-macroarrays confirmed by quantitative RT-PCR on messenger RNAs of epidermal cells: TNS & CRAB-2 receptor expression; format: cell-based
[2] = system: men with alopecia (proportion of hair in the telogen phase greater than 15%); assay: Anti-hair loss study by videotrichogram on volunteers with alopecia; format: in vivo, human; conditions: used as active ingredient in an anti-hair loss composition already containing Lentinus edodes extract, procyanidolic oligomers and Cananga odorata essential oil
Text: The anti-ageing effect on the epidermis was confirmed in vivo in a study relating to the anti-hair loss properties of (2S,3R,4S)-4-hydroxyisoleucine carried out on volunteer subjects affected by alopecia, having a proportion of hair in the telogen phase greater than […] 15%. […] This anti-hair loss composition is described in application FR 2 776 184 of which the applicant is proprietor. It contains an aqueous extract of the mushroom Lentinus edodes rich in 1,3-β-D-1,6-β-D-glucan, procyanidolic oligomers extracted from grapeseed cuticle, and essential oil extracted from the flowers of Cananga odorata. […]
This study was carried out on a sample of 25 volunteers for each composition tested. The only people included in the study were men from 20 to 50 years old (average age of each group 37 years) with alopecia, that is to say having a proportion of hair in the telogen phase, determined by videotrichogram, greater than 15%.
The apparatus used is a videomicroscope equipped with a ×25 lens, which is mobile and optical fibre-based, linked to a computer system for image acquisition. The lens is placed directly over the zone to be studied, the image is digitized, recorded and analysed with the aid of a specific software (COUNTHAIR®) developed by the company DERMSCAN which makes it possible to count the hair strands and to measure their length. […]

JL1-R1 receptor = assay: cDNA-macroarrays confirmed by quantitative RT-PCR on messenger RNAs of epidermal cells: JL1-R1 receptor expression; format: cell-based
[3] = system: Cellular Retinoic Acid Binding Protein (CRAB-P-2); assay: cDNA-macroarrays confirmed by quantitative RT-PCR on messenger RNAs of epidermal cells: CRAB-P-2 expression; format: cell-based

For C[C@@H]([C@H](C)O)[C@H](N)C(=O)O [(2S,3R,4S)-4-hydroxyisoleucine], the “expression of Bullous Pemphigoid Antigen 1 (BPAG-1)” value [1] was “significant overexpression”, the “expression of the TNS & CRAB-2 receptors” value (TNS & CRAB-2 receptors) was “decrease in the expression” and the anti-hair loss properties [2] was “particularly effective”. For the same compound, the “expression of the JL1-R1 receptor” value (JL1-R1 receptor) was “significant overexpression” and the “expression of Cellular Retinoic Acid Binding Protein (CRAB-P-2)” value [3] was “significant underexpression”.
